How the values were obtained:
[1] = tested on: ATXN3-Q75-GFP SH-SY5Y cells; assay: Western blot of LC3-II:LC3-I ratio; assay type: cell-based, human; conditions: compound 10 μM; uninduced = 100%, untreated induced 76%; range over trehalose and the four compounds
Description: For the immunoblotting analysis, ATXN3-Q75-GFP SH-SY5Y cells were seeded in 6-well plates (3 × 10^5/well) and treated with retinoic acid, test compounds, and doxycycline, as described. On day 8, cells were collected and lysed in buffer (50 mM Tris-HCl pH 8.0, 150 mM NaCl, 2 mM EDTA pH 8.0, 0.1% SDS, 0.5% sodium deoxycholate, 1% NP-40) containing the protease inhibitor cocktail (Sigma-Aldrich). After sonication, the lysates were centrifuged (12,000× g for 10 min at 4 °C) and protein concentrations determined (Bradford protein assay; Bio-Rad, Hercules, CA, USA). Aliquots of protein (20 µg) were separated by electrophoresis using 12% SDS-polyacrylamide gel followed by transfer to a polyvinylidene fluoride membrane. After being blocked with 5% skim milk at 4 °C overnight, the membrane was stained with LC3 (1:1000; Medical & Biological Laboratories Co. #PM036, Tokyo, Japan) or GAPDH (glyceraldehyde 3-phosphate dehydrogenase) (1:1000, MDBio #30000002, Taipei, Taiwan) primary antibody at 4 °C overnight. The immune complexes were detected using HRP-conjugated goat anti-rabbit IgG antibody and chemiluminescent substrate, as described.

ATXN3-Q75-VC and VN-LC3 = assay: Co-immunoprecipitation of VN-LC3 with ATXN3-Q75-VC in mixed 293T cell lysates; assay type: binding; conditions: compound 100 µM; compared to without compound treatment
Source text: EcoRI-NcoI ATXN3 C-terminal Q14 and Q75-containing fragment (amino acids 251–361 in full-length ATXN3-Q14 [NM_004993]; [20]) and NcoI-NotI Venus C-terminal fragment (VC212-239) were subcloned into EcoRI- and NotI-digested pcDNA3 vector (Invitrogen) to generate pcDNA3-ATXN3-Q14−75-VC plasmid for producing ATXN3-Q14−75-VC fusion protein linked by a 6-amino acid polypeptide linker (containing NcoI restriction site). In addition, BamHI-XbaI Venus-N-terminal fragment (VN1-211) and XbaI-BamHI LC3 cDNA fragment (MAP1LC3B, NM_022818) were subcloned into BamHI-digested pcDNA5/FRT/TO vector (Invitrogen) to generate pcDNA5-VN-LC3 plasmid for producing VN-LC3 fusion protein linked by a 2-amino acid dipeptide linker (containing XbaI restriction site). The recombinant pcDNA3-ATXN3-Q14-VC, pcDNA3-ATXN3-Q75-VC, or pcDNA5-VN-LC3 plasmid (2 μg) was transiently transfected into 293T cells (2 × 10^5/6-well) using T-Pro non-liposome transfection reagent II (T-Pro Biotechnology #JT97-N002M, New Taipei City, Taiwan) according to the supplier’s instruction. After 48 h, cell lysate containing ATXN3-Q14-VC, ATXN3-Q75-VC, or VN-LC3 fusion protein was prepared using cytoskeleton (CSK) buffer containing 10 mM PIPES, 100 mM NaCl, 300 mM sucrose, 1 mM EGTA, 1 mM MgCl2, and 1 mM DTT and quantified, as described.
In this case, 293T cell lysates with transiently expressed ATXN3-Q14-VC, ATXN3-Q75-VC, or VN-LC3, and mixture of ATXN3-Q75-VC and VN-LC3 (100 μg of each) in 400 μL CSK buffer were incubated at 4 °C under gentle rotation. To test the concept of the ATTEC, 100 μM of the compound (NC009-1, -2, and -6 or LM-031) was added to the lysates containing ATXN3-Q75-VC and VN-LC3 proteins. After overnight incubation, ATXN3-Q14−75-VC protein was immunoprecipitated with rabbit ataxin-3 (1:1000; Invitrogen #PA5-26251) or mouse 5TF1-1C2 antibody (1:500; Merck #MAB1574, Darmstadt, Germany) at 4 °C overnight. […] The immune complexes were detected using HRP-conjugated goat anti-rabbit (#GTX213110-01) or goat anti-mouse (#GTX213111-01) IgG antibody (1:5000; GeneTex) and chemiluminescent substrate, as described.

SMILES	Relative LC3-II:LC3-I ratio [1]	Amount of VN-LC3 co-immunoprecipitated by 5TF1-1C2 antibody (ATXN3-Q75-VC and VN-LC3)
O=C(c1ccccc1)c1cc2c(O)cccc2oc1=O [LM-031]	102–124%	notably increased
CC(=O)/C(=C\c1ccccc1[N+](=O)[O-])Cc1c[nH]c2ccccc12 [NC009-1]	102–124%	notably increased
CC(=O)/C(=C\c1ccccc1[N+](=O)[O-])Cc1c(C)[nH]c2ccccc12 [NC009-2]	102–124%	notably increased
